14 molecules from patent US12391676B2 (H. LEE MOFFITT CANCER CENTER AND RESEARCH INSTITUTE, INC., priority 2018, dated 2025) can be followed below.

Each structure is given as a SMILES string.

For the first test, the target named is BRD4 (Homo sapiens (Human), UniProt O60885). Kind of test: BRD4 DSF thermal shift (ΔTm). Format: binding. Particulars: Table 1.
For the molecule `CN1CCN(c2ccc(Nc3ncc(F)c(Nc4ccc(Cl)c(NS(=O)(=O)C(C)(C)C)c4)n3)cc2)CC1`, the “DSF ΔTm” value amounted to 9.6 ± 0.9 °C.

As for `CN1CCC(c2ccc(Nc3ncc(C(F)(F)F)c(Nc4ccc(Cl)c(NS(=O)(=O)C(C)(C)C)c4)n3)cc2F)CC1`, the “DSF ΔTm” value came out at 10.4 ± 0.1 °C. Same read-out and setting: the same measure for `Cc1cnc(Nc2ccc(OCCN3CCCC3)c(F)c2)nc1Nc1ccc(Cl)c(NS(=O)(=O)C(C)(C)C)c1`: 15.1 ± 0.1 °C. With `Cc1cnc(Nc2ccc(OCCN3CCCC3)cc2)nc1Nc1ccc(Cl)c(NS(=O)(=O)C(C)(C)C)c1`, the “DSF ΔTm” value worked out at 12.9 ± 0.1 °C. Same read-out and setting: under `Cc1cnc(Nc2ccc(OCCN3CCCC3)c(F)c2)nc1Nc1cccc(NS(=O)(=O)C(C)(C)C)c1` stands 12.6 ± 0.1 °C.

The test is the same for the next values; noted with them: Table 2.
In the case of `Cc1cnc(Nc2ccc(OCCN3CCCC3)cc2)nc1Nc1cc(NS(=O)(=O)C(C)(C)C)ncn1`, the “BRD4 DSF (ΔTm)” value amounted to 1.1 °C.

`Cc1cnc(Nc2ccc(N3CCN(C)CC3)c(F)c2)cc1Nc1ccc2c(c1)N(S(=O)(=O)C(C)(C)C)CC2` [MA9-042, N^4-(1-(tert-Butylsulfonyl)indolin-6-yl)-N^2-(3-fluoro-4-(4-methylpiperazin-1-yl)phenyl)-5-methylpyridine-2,4-diamine]: the “BRD4 DSF (ΔTm)” value worked out at 6.1 °C. Same read-out and setting: the same measure for `Cc1cnc(Nc2ccc(C3CCN(C)CC3)c(F)c2)nc1Nc1ccc2ccn(S(=O)(=O)C(C)(C)C)c2n1` [MA10-148, N4-(1-(Tert-butylsulfonyl)-1H-pyrrolo[2,3b]pyridin-6-yl)-N2-(3-fluoro-4-(1-methylpiperidin-4-yl)phenyl)-5-methylpyrimidine-2,4-diamine]: 7.6 °C; for `Cc1cnc(Nc2cc(F)c(C3CCN(C)CC3)cn2)nc1Nc1ccc2ccn(S(=O)(=O)C(C)(C)C)c2n1` [MA10-149, N4-(1-(tert-butylsulfonyl)-1H-pyrrolo[2,3-b]pyridin-6-yl)-N2-(4-fluoro-5-(1-methylpiperidin-4-yl)pyridin-2-yl)-5-methylpyrimidine-2,4-diamine]: 6.2 °C; for `Cc1cnc(Nc2ccc(C3CCN(C)CC3)c(F)c2)nc1Nc1cc(NS(=O)(=O)C(C)(C)C)ncn1` [MA10-174, N-(6-((2-((3-fluoro-4-(1-methylpiperidin-4-yl)phenyl)amino)-5-methylpyrimidin-4yl)amino)pyrimidin-4-yl)-2-methylpropane-2-sulfonamide]: 0.9 °C. The same measure, in the same setting: the same measure for `Cc1cnc(Nc2ccc(OCCN3CCCC3)c(F)c2)nc1Nc1cc(NS(=O)(=O)C(C)(C)C)ncn1` [MA10-176, N-(6-((2-((3-fluoro-4-(2-(pyrrolidin-1-yl)ethoxy)phenyl)amino)-5-methylpyrimidin-4-yl)amino)pyrimidin-4-yl)-2-methylpropane-2-sulfonamide]: 1.4 °C. On to `Cc1cnc(Nc2cc(F)c(C3CCN(C)CC3)cn2)nc1Nc1cc(NS(=O)(=O)C(C)(C)C)ncn1` [MA10-178, N-(6-((2-((4-fluoro-5-(1-methylpiperidin-4-yl)pyridin-2-yl)amino)-5-methylpyrimidin-4-yl)amino)pyrimidin-4-yl)-2-methylpropane-2-sulfonamide], for which the “BRD4 DSF (ΔTm)” value turned out to be 2.8 °C. On to `Cc1cnc(Nc2ccc(C3CCN(C)CC3)c(F)n2)nc1Nc1cc(NS(=O)(=O)C(C)(C)C)ncn1` [MA10-179, N-(6-((2-((6-fluoro-5-(1-methylpiperidin-4-yl)pyridin-2-yl)amino)-5-methylpyrimidin-4-yl)amino)pyrimidin-4-yl)-2-methylpropane-2-sulfonamide], for which the “BRD4 DSF (ΔTm)” value is 1.4 °C. Turning to `Cc1cnc(Nc2ccc(C3CCN(C)CC3)c(F)c2)nc1Nc1ncc2ccn(S(=O)(=O)C(C)(C)C)c2n1` [MA11-003, N4-(7-(tert-butylsulfonyl)-7H-pyrrolo[2,3-d]pyrimidin-2-yl)-N2-(3-fluoro-4-(1-methylpiperidin-4-yl)phenyl)-5-methylpyrimidine-2,4-diamine], the “BRD4 DSF (ΔTm)” value came to 8.0 °C.
